From patent US20100284925A1, “Small Molecule Intervention for Obesity” (priority 2006, published 2010)

Legend:
[1] = Body weight, food intake, serum parameters and adiposity in leptin-deficient ob/ob mice; format: in vivo
Procedure: FIG. 4. Effects of prieurianin on blood insulin, glucose and NEFA levels. Normal and ob/ob mice were treated with 5 mg/kg of prieurianin and serum samples were then collected for (FIG. 4A) insulin; (FIG. 4B) glucose; and (FIG. 4C) non-esterified fatty acid (NEFA) profiling. Results are means of three animals per group for each treatment. Blue column, normal C57BL/6J; and red column, leptin-deficient ob/ob mice.
FIG. 5. Effects of prieurianin on adiposity in ob/ob mice. The leptin-deficient ob/ob mice were treated with 5 mg/kg of prieurianin and subcutaneous and visceral adipose tissues were excised and weighed. Results are means of three to five animals per group as indicated (n).
Prieurianin was administered intraperitoneally to 12-14 week-old normal C57BL/6J mice and the genetically leptin-deficient ob/ob mice (2 or 5 mg/kg) twice a week for two weeks. Controls received equivolume injections of drug vehicle. Body weight and food intake were measured every three days, and blood samples were collected at the end of the experiment.
Obesity contributes to hypertension, high serum cholesterol, low HDL cholesterol, and hyperglycemia, thus potentially leading to higher risk of cardiovascular disease. Abdominal obesity especially correlates with metabolic risk factors. The leptin-deficient ob/ob mice are hyperlipidemic, and hyperglycemic. To test whether prieurianin altered the metabolic or endocrinological parameters in addition to appetite, the serum lipid profile, insulin and glucose levels were measured.
To further examine the effects of prieurianin on the adiposity of the normal C57BL/6J and the ob/ob mice, we measured their visceral and subcutaneous body fat.

[2] = tested on: C/EBPα; experiment: C/EBPα response element luciferase reporter in L1 preadipocytes; format: cell-based; details: prieurianin 2 μM
Procedure: FIG. 18. Effects of prieurianin on C/EBPα and β and PPARγ mediated transcription in adipogenesis. Response elements corresponding to C/EBPα and β and PPARγ are cloned into the pGL3 basic luciferase reporter plasmid. L1 preadipocytes were contransfected with the reporter plasmid either in the presence or the absence of the corresponding transcription factors cloned into expression vector, followed by treatment with 2 μM of prieurianin. Cells were harvested for luciferase assay 15-24 hrs later. Results are means±S.E. of triplicate experiments.

[3] = Observation of overt toxicity in treated animals; format: in vivo; details: animals given the drug for the duration of the experiments

C=C1[C@@H]([C@@]2(C)[C@@H](OC(C)=O)CC(=O)O[C@](C)(COC(C)=O)[C@@H]2C(=O)OC)[C@@H](OC=O)[C@H](OC(=O)[C@H](O)[C@H](C)CC)[C@@]2(C)[C@H](c3ccoc3)CC(=O)[C@]12O [prieurianin]
serum PLTP activity [1]: decrease in serum PLTP activity
NEFA levels ([1]; 5 mg/kg): only a modest decrease in NEFA levels
hyperglycemia (glucose level) ([1]; 5 mg/kg): reversed to levels comparable to those of normal controls
insulin levels ([1]; 5 mg/kg): reduce by approximately three to four-fold
subcutaneous and visceral adipose tissues ([1]; 5 mg/kg): significantly reduced both the subcutaneous and visceral adipose tissues
decrease in food intake ([1]; 5 mg/kg group, relative to untreated or vehicle treated controls): ≤ 50%
reduction of total body fat ([1]; 5 mg/kg, vs untreated and vehicle-treated controls): greater than 50%
reduction in total body weight ([1]; 2 or 5 mg/kg i.p. twice a week, after two weeks): up to 10%
total cholesterol level ([1]; serum): significantly lower
triglyceride levels ([1]; serum): no significant changes
HDL levels ([1]; vs untreated and vehicle-treated): approximately two-fold lower
transactivation potential of C/EBPα [2]: inhibits the transactivation potential
overt toxicity [3]: no overt toxicity was observed
